Reference: patent US12544453B2, “Amphotericin B conjugated stabilized gold nanoparticles and uses thereof” (Max-Planck-Gesellschaft zur Förderung der Wissenschaften …, priority 2019, dated 2026)
Read-outs that look alike come from different tables or passages of the source.

Tests used:
Assay in all cases: Antifungal susceptibility testing, broth microdilution MIC
Format in all cases: cell-based
Candida glabrata = conditions: Nakaseomyces glabratus, fluconazole MIC50 (50% growth reduction), read-out: Minimum Inhibitory Concentration (MIC)
Protocol: (§1) The minimum inhibitory concentrations (MICs) of fluconazole, amphotericin B, amphotericin B thiohexose or thiopentose stabilized gold nanoparticles, and of naked gold nanoparticles were determined using broth microdilution methods following the guidelines of the Clinical and Laboratory Standards Institute (Reference Method for Broth Dilution Antifungal Susceptibility Testing of Yeasts, Alexander B. D., 2017, M27-A4). Microtiter 96-well plates containing two-fold serial dilutions, at final concentrations ranging from […], of the test agents in RPMI-1640 medium (buffered with MOPS and adjusted to pH=7) were inoculated with the freshly-prepared fungal suspensions. Microtiter plates were incubated at 35° C. for 24-72 hrs according to the tested species.

Cryptococcus neoformans = conditions: read-out: Minimum Inhibitory Concentration (MIC)
Protocol: as §1

Candida tropicalis = tested on: Candida tropicalis
Protocol: as §1

Candida parapsilosis = conditions: Lodderomyces parapsilosis, read-out: Minimum Inhibitory Concentration (MIC)
Protocol: as §1

Aspergillus fumigatus = conditions: read-out: Minimum Inhibitory Concentration (MIC)
Protocol: as §1

Candida auris = conditions: Candidozyma auris, fluconazole MIC50 (50% growth reduction), read-out: Minimum Inhibitory Concentration (MIC)
Protocol: as §1

Candida krusei = conditions: Pichia kudriavzevii, read-out: Minimum Inhibitory Concentration (MIC)
Protocol: as §1

Cryptococcus gatti = conditions: read-out: Minimum Inhibitory Concentration (MIC)
Protocol: as §1

Candida albicans = conditions: read-out: Minimum Inhibitory Concentration (MIC)
Protocol: as §1

Measured: MIC

OC(Cn1cncn1)(Cn1cncn1)c1ccc(F)cc1F [Fluconazole]
2 µg/mL: Candida parapsilosis; ATCC22019 | Candida albicans; ATCC10231, Candida albicans ATCC 10231, fluconazole MIC50 (50% growth reduction)
0.5 µg/mL: Candida tropicalis; ATCC1369, read-out: Minimum Inhibitory Concentration (MIC) | Candida parapsilosis | Candida albicans; SC5314, Candida albicans SC5314, fluconazole MIC50 (50% growth reduction)
32 µg/mL: Cryptococcus neoformans; Cryptococcus neoformans NR-41295, fluconazole MIC50 (50% growth reduction)
0.25 µg/mL: Candida tropicalis; ATCC13803, read-out: Minimum Inhibitory Concentration (MIC)
128 µg/mL: Aspergillus fumigatus; Aspergillus fumigatus NR-35303, fluconazole MIC50 (50% growth reduction) | Aspergillus fumigatus; Aspergillus fumigatus NR-41312, fluconazole MIC50 (50% growth reduction) | Candida albicans; ATCC64124, Candida albicans ATCC 64124, fluconazole MIC50 (50% growth reduction)
8 µg/mL: Candida glabrata; ATCC66032, Candida glabrata ATCC 66032 | Candida glabrata; Candida glabrata ATCC MYA-2950 | Cryptococcus gatti; Cryptococcus gatti NR-43208, fluconazole MIC50 (50% growth reduction) | Cryptococcus gatti; Cryptococcus gatti NR-43213, fluconazole MIC50 (50% growth reduction)
> 128 µg/mL: Aspergillus fumigatus; Aspergillus fumigatus NR-35304, fluconazole MIC50 (50% growth reduction) | Candida auris; Candida auris 385 | Candida auris; Candida auris 386 | Candida auris; Candida auris 389 | Candida auris; Candida auris 390 | Candida albicans; Candida albicans NR 29446, fluconazole MIC50 (50% growth reduction) | Candida albicans; Candida albicans NR 29448, fluconazole MIC50 (50% growth reduction)
4 µg/mL: Candida glabrata; ATCC2001, Candida glabrata ATCC 2001 | Candida glabrata; Candida glabrata CAB 524041 | Cryptococcus neoformans; Cryptococcus neoformans NR-41298, fluconazole MIC50 (50% growth reduction) | Cryptococcus neoformans; Cryptococcus neoformans NR-48767, fluconazole MIC50 (50% growth reduction)
1 µg/mL: Candida auris; Candida auris 381 | Candida albicans; ATCC26790, Candida albicans ATCC 26790, fluconazole MIC50 (50% growth reduction)
16 µg/mL: Cryptococcus neoformans; Cryptococcus neoformans NR-41291, fluconazole MIC50 (50% growth reduction) | Candida krusei; ATCC14243 | Candida krusei; ATCC34135 | Candida krusei | Cryptococcus gatti; Cryptococcus gatti NR-43209, fluconazole MIC50 (50% growth reduction) | Cryptococcus gatti; Cryptococcus gatti NR-43210, fluconazole MIC50 (50% growth reduction)
